Measured values reported in US4451468A, “Acidiferous 17-normal-pentyl sparteine tartaric and fumaric acid salts pharmaceutical compositions thereof” (Kali-Chemie Pharma GmbH, priority 1979, dated 1984).
≈ marks a conversion by molar mass, not a printed value. Where a name gives a salt, the structure may show the parent alone.

Columns and labels:
[1] = tested on: isolated auricle of guinea pigs; assay: measurement in the isolated auricle (functional refractory period and contraction force), modified method of Govier; conditions: Cavia porcellus, on the average; for EC (125% of initial value): read-out: FRP: concentration at which the functional refractory period is extended to 125% of the initial values; for IC25: read-out: Force: concentration at which the contraction force is reduced to 75% of the initial values
Experimental: These values were determined by measurements in the isolated auricle of guinea pigs by the method (modified) of Govier, as described by Govier in J. Pharmacol. exp.

mice = assay: LD50 toxicity measurement on mice, i.p., eight days after a single application; format: in vivo; conditions: calculated by method of Litchfield
Experimental: The LD50, i.p. values (μmole/1) were determined by toxicity measurements on mice, eight days after a single application. The LD50 values were calculated by the method of J. P. Litchfield et al., J. Pharmacol. exp. Ther. 96, 99 (1949).

[2] = solubility in water at 22° C.; format: physicochemical
[3] = stability tests (storage at 55° C.; exposure to light) with thin layer chromatography; format: physicochemical; conditions: salts
Experimental: In stability tests, no dissociation was found in thin layer chromatographic investigations. One test included storage for one month at 55° C. and as a second test utilized exposure to light (30 hours, rapid light exposure instrument "SUNTEST," Heraeus Co.).

humans = conditions: application to humans; cited from earlier work
[4] = hygroscopicity of crystalline salts; format: physicochemical

SMILES | EC (125% of initial value) [1] [µM] | IC25 [1] [µM] | LD50 i.p. (mice) [μmole/1] | solubility [2] [mg/mL] | stability [3] | toxicity in humans (humans) | hygroscopicity [4]
CCCCCC1C2CC(CN3CCCCC23)C2CCCCN21 (stereo not drawn) [Pentylsparteine diperchlorate, perchlorate of 17-β-n-pentyl sparteine] | 7.7 | 19.2 | 283 | 20 (≈ 65.7 mM) | stable salt | leukopenia, agranulocytosis and aplastic anemia | –
CCCCCC1C2CC(CN3CCCCC23)C2CCCCN21 (single isomer, unassigned) [acidiferous 17-β-n-pentyl sparteine-L(+) tartrate] | 9.1 | 22.1 | 262 | > 1000 | – | – | –
CCCCCC1C2CC(CN3CCCCC23)C2CCCCN21 (stereo not drawn) [sulfate of 17-β-n-pentyl sparteine] | – | – | – | – | – | – | extremely hydroscopic
CCCCCC1C2CC(CN3CCCCC23)C2CCCCN21 (stereo not drawn) [hydrochloride of 17-β-n-pentyl sparteine] | – | – | – | – | – | – | extremely hydroscopic
CCCCCC1C2CC(CN3CCCCC23)C2CCCCN21 (stereo not shown) [Example 11] | – | – | – | – | – | – | very rapidly dissolved
C1CCN2C[C@@H]3C[C@@H](CN4CCCC[C@@H]34)[C@H]2C1 [Sparteine Sulfate, sparteine sulfate] | 33.9 | 959 | 202 | – | – | – | –
